Test results from article PMC4896931, “The discovery of 2-substituted phenol quinazolines as potent RET kinase inhibitors with improved KDR selectivity” (European Journal of Medicinal Chemistry, 2016).
Counter-ions that a name gives are not always drawn.

What was measured:
KDR = KDR (Homo sapiens, UniProt P35968)
[1] = target: T1, BaF3 cells expressing KIF5B-RET (Homo sapiens, UniProt P07949+P33176)
T1 sequence (P33176+P07949 with tags, fused parts or gaps): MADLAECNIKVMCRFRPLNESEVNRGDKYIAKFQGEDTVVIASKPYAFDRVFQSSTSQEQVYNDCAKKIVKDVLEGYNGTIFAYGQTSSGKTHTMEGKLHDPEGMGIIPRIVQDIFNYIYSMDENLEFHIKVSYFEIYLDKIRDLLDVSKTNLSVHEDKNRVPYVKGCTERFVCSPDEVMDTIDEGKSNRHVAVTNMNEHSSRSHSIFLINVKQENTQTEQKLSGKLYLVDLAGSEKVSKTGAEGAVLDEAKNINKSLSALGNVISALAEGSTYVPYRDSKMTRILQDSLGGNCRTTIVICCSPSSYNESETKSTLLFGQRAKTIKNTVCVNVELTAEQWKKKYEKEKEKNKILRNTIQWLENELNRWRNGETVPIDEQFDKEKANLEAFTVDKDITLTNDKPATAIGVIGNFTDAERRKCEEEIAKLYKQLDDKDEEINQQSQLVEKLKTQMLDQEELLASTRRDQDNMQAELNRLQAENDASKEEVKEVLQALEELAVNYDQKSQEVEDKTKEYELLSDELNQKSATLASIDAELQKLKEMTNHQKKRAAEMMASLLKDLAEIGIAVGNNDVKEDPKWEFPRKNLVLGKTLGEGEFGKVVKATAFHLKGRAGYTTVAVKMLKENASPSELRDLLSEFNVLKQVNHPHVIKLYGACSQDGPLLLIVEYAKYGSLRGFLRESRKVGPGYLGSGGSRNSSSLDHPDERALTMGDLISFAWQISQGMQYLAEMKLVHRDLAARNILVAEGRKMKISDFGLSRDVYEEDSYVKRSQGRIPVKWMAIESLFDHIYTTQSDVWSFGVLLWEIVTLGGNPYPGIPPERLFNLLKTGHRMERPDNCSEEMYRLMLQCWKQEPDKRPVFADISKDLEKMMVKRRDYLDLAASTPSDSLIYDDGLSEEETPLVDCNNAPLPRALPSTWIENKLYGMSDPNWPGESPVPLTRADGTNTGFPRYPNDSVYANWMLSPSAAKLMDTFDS

[2] = Human hepatocyte stability; type: in vitro ADME; details: human hepatocytes
in vitro = details: mouse
[3] = Mouse hepatocyte stability; type: in vitro ADME; details: mouse hepatocytes
Aqueous solubility = type: physicochemical; details: aqueous medium (not further specified)
Caco-2 permeability = type: in vitro ADME; details: human; Caco-2 cells
[4] = Mouse pharmacokinetics (intravenous and oral); type: in vivo, male CD-1 mice
Protocol: All studies were conducted after review by the Animal Welfare and Ethical Review Body at CRUK:MI and in accordance with the University of Manchester Policy on the use of animals in research. All work was carried out in compliance with the Animals (Scientific Procedures) Act 1986. Pharmacokinetics were studied in male CD-1 mice following single intravenous or oral administration. Blood samples were collected as dried blood spots and assayed following solvent extraction through a phospholipid removal plate followed by LC-MS/MS analysis. The resulting concentration-time data were analysed by non-compartmental methods (PK Solver, Excel Add-In).

[5] = non-modified (wild-type, non RET-driven) BaF3 cells

Sequence of KDR (P35968 20-1356): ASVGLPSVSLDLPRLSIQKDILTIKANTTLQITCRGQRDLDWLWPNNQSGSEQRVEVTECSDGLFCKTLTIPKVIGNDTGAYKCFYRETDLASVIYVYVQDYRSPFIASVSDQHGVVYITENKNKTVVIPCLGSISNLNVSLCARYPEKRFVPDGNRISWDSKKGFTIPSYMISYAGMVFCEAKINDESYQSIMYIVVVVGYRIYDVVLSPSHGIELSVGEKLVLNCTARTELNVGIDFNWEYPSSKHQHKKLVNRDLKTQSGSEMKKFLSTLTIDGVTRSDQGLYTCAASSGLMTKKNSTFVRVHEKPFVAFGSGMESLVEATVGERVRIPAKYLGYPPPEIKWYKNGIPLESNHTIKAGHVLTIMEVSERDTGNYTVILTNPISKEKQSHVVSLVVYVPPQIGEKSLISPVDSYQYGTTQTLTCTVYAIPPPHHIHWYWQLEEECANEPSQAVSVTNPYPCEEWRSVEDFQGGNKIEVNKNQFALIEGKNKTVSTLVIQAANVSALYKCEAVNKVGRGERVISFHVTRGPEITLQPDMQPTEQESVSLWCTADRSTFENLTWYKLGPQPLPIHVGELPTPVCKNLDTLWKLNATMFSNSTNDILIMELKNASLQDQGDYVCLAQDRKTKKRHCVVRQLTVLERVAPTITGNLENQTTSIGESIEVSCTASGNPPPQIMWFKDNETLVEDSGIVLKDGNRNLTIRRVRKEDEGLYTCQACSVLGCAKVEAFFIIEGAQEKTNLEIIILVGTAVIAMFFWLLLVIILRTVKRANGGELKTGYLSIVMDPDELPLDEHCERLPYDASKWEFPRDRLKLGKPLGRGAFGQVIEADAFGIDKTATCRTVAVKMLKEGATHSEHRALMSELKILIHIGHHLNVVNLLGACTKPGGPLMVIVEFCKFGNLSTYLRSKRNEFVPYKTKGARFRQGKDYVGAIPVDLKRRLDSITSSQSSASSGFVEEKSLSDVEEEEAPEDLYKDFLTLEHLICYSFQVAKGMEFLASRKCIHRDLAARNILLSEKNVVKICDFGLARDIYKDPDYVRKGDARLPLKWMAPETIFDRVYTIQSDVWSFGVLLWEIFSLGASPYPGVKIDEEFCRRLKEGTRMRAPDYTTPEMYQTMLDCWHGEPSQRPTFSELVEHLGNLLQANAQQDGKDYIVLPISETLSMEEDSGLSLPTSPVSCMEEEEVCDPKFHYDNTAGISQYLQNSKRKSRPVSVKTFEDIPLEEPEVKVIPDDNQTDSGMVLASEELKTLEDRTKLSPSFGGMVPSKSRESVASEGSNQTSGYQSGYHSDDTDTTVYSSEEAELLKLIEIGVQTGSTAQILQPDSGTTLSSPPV

IC50 (KDR) | IC50 [1] | hepatocyte CLint [2] | SMILES | also measured
460 nM | 1700 nM |  | COc1cc2ncnc(Nc3ccc(Br)cc3F)c2cc1OC [Compound 4] | 
 |  | 76.9 µL/min/1e6 cells | COc1cc2ncnc(Nc3cccc(O)c3)c2cc1OC [Compound 6] | IC50 at 48 h (in vitro; [5]): > 10000 nM
2800 nM |  |  | COc1cc2ncnc(Nc3ccc(O)cc3)c2cc1OC [Compound 7] | 
7600 nM |  |  | COc1cc2ncnc(Nc3cccc(N)c3)c2cc1OC [Compound 8] | 
4800 nM |  |  | COc1cccc(Nc2ncnc3cc(OC)c(OC)cc23)c1 [Compound 9] | 
 |  | 95.5 µL/min/1e6 cells | COc1cc2ncnc(Nc3cccc(O)c3O)c2cc1OC [Compound 10, 3-((6,7-Dimethoxyquinazolin-4-yl)amino)benzene-1,2-diol hydrochloride] | IC50 at 48 h (in vitro; [5]): > 10000 nM
 |  | 157 µL/min/1e6 cells | COc1cc2ncnc(Nc3cccc(O)c3Br)c2cc1OC [Compound 11, 2-Bromo-3-((6,7-dimethoxyquinazolin-4-yl)amino)phenol hydrochloride] | IC50 at 48 h (in vitro; [5]): > 10000 nM
280 nM |  |  | COc1cc2ncnc(Nc3cccc(O)c3F)c2cc1OC [Compound 14, 3-((6,7-Dimethoxyquinazolin-4-yl)amino)-2-fluorophenol] | 
> 10000 nM |  |  | COc1cc2ncnc(Nc3cccc(O)c3OC)c2cc1OC [Compound 15, 3-((6,7-Dimethoxyquinazolin-4-yl)amino)-2-methoxyphenol] | 
> 10000 nM |  |  | COc1cc2ncnc(Nc3cccc(O)c3C(F)(F)F)c2cc1OC [Compound 17, 3-((6,7-Dimethoxyquinazolin-4-yl)amino)-2-(trifluoromethyl)phenol] | 
> 10000 nM |  |  | COc1cc2ncnc(Nc3cccc(O)c3C#N)c2cc1OC [Compound 18, 2-((6,7-Dimethoxyquinazolin-4-yl)amino)-6-hydroxybenzonitrile] | 
18 nM | 500 nM |  | COc1cc2ncnc(Nc3ccc(C)c(O)c3)c2cc1OC [Compound 20] | 
58 nM | 940 nM |  | COc1cc2ncnc(Nc3ccc(Cl)c(O)c3)c2cc1OC [Compound 21] | 
20 nM | 53 nM |  | COc1cc2ncnc(Nc3cc(O)ccc3F)c2cc1OC [Compound 25] | 
71 nM | 85 nM |  | COc1cc2ncnc(Nc3cc(O)ccc3Cl)c2cc1OC [Compound 26, 4-Chloro-3-((6,7-dimethoxyquinazolin-4-yl)amino)phenol] | 
9.5 nM | 53 nM |  | COc1cc2ncnc(Nc3cc(O)c(F)cc3F)c2cc1OC [Compound 28] | 
2.3 nM | 41 nM | 91.9 µL/min/1e6 cells | COc1cc2ncnc(Nc3cc(O)c(C)cc3F)c2cc1OC [Compound 30] | IC50 at 48 h (in vitro; [5]): > 1000 nM
69 nM | 120 nM | 68.9 µL/min/1e6 cells | COc1cc2ncnc(Nc3c(F)ccc(O)c3F)c2cc1OC [Compound 33, 3-((6,7-Dimethoxyquinazolin-4-yl)amino)-2,4-difluorophenol] | IC50 at 48 h (in vitro; [5]): > 10000 nM
 |  | 54.8 µL/min/1e6 cells | COc1cc2ncnc(Nc3cc(F)cc(O)c3C)c2cc1OC [Compound 35, 3-((6,7-Dimethoxyquinazolin-4-yl)amino)-5-fluoro-2-methylphenol hydrochloride] | IC50 at 48 h (in vitro; [5]): > 10000 nM
 |  | 20.9 µL/min/1e6 cells | COc1cc2ncnc(Nc3c(F)ccc(O)c3C)c2cc1OC [Compound 36, 3-((6,7-Dimethoxyquinazolin-4-yl)amino)-4-fluoro-2-methylphenol hydrochloride] | hepatocyte CLint [3]: 38.1 µL/min/1e6 cells; solubility (Aqueous solubility): > 100 µM; Papp (Caco-2 permeability): 8.2 ×10⁻⁶ cm/s; Total blood clearance ([4]; intravenous): < 10 % LBF; Oral half-life ([4]; oral): approximately 2 h; bioavailability ([4]; oral): approximately 35%
> 10000 nM | 3600 nM |  | COc1cc2ncnc(Nc3c(Cl)ccc(O)c3C)c2cc1OC [Compound 37, 4-Chloro-3-((6,7-dimethoxyquinazolin-4-yl)amino)-2-methylphenol] | 
1400 nM |  |  | COc1cc2ncnc(Nc3c(Cl)ccc(O)c3Cl)c2cc1OC [Compound 39, 2,4-Dichloro-3-((6,7-dimethoxyquinazolin-4-yl)amino)phenol] | 
150 nM | 620 nM |  | COc1cc2ncnc(Oc3cccc(O)c3)c2cc1OC [Compound 42, 3-((6,7-Dimethoxyquinazolin-4-yl)oxy)phenol] | 

SMILES | IC50 (KDR) | IC50 [1] | hepatocyte CLint [2] | also measured
COc1cc2ncnc(Nc3cccc(O)c3Cl)c2cc1OC [Compound 12, 2-Chloro-3-((6,7-dimethoxyquinazolin-4-yl)amino)phenol hydrochloride] |  |  | 174 µL/min/1e6 cells | IC50 at 48 h (in vitro): > 10000 nM
COc1cc2ncnc(Nc3cccc(O)c3C)c2cc1OC [Compound 13, 3-((6,7-Dimethoxyquinazolin-4-yl)amino)-2-methylphenol hydrochloride] |  |  | 28.4 µL/min/1e6 cells | IC50 at 48 h (in vitro): > 10000 nM
COc1cc2ncnc(Nc3c(Cl)ccc(O)c3F)c2cc1OC [Compound 34, 4-Chloro-3-((6,7-dimethoxyquinazolin-4-yl)amino)-2-fluorophenol] |  |  | 93.3 µL/min/1e6 cells | IC50 at 48 h (in vitro): > 10000 nM
COc1cc2ncnc(Nc3c(F)ccc(O)c3Cl)c2cc1OC [Compound 40, 2-Chloro-3-((6,7-dimethoxyquinazolin-4-yl)amino)-4-fluorophenol] | 1100 nM |  | 66.7 µL/min/1e6 cells | IC50 at 48 h (in vitro): > 10000 nM
